Results taken from patent US12441734B2, “Ferroptosis inhibitor and use therefor” (JICHI MEDICAL UNIVERSITY, priority 2021, dated 2025).

Tests used:
[1] = tested on: SH-SY5Y cells; assay: Test VI: inhibition of rotenone-induced neuronal death (LDH assay); type: cell-based, human; set-up: key: ++: the case where a concentration-dependent inhibitory effect on rotenone-induced cell death was able to be confirmed twice; +: In the third test, the case where the concentration-dependent inhibitory effect was able to be confirmed; ±: the case where no concentration-dependent inhibitory effect was able to be confirmed; −: The case where any inhibitory effect on rotenone-induced cell death was able to be confirmed in none of the two tests; conditions: rotenone 1 μM, compound 10 nM-10 μM (Apo 0.1 nM-10 μM), 48 hours
Experimental: After the completion of culture, rotenone-induced cell death was measured using Cytotoxicity LDH Assay Kit-WST (Dojindo Laboratories). […] The test was conducted twice, and the case where a concentration-dependent inhibitory effect on rotenone-induced cell death was able to be confirmed twice was rated as (++). If the inhibitory effect was confirmed in one of the two tests and no inhibitory effect was confirmed in the other test, the third test was conducted. In the third test, the case where the concentration-dependent inhibitory effect was able to be confirmed was rated as (+), and the case where no concentration-dependent inhibitory effect was able to be confirmed was rated as (±). The case where any inhibitory effect on rotenone-induced cell death was able to be confirmed in none of the two tests was rated as (−).

[2] = tested on: Leigh syndrome patient cells (KCMC10); assay: Test III: suppression of RSL-3-induced ferroptosis, Leigh syndrome patient cells; type: cell-based, human; conditions: 100 nM RSL-3 coadded with test compound; FIG. 34
Text: (§1) Apomorphine and idebenone approved as a therapeutic drug for Leber's hereditary optic neuropathy in the Europe were used as control drugs.
(§2) In the drawing, A depicts the results obtained using compounds D8, D9, D10, D18, D20, D26, and D36, and B depicts the results obtained using compounds D37, D38, D39, D40, D41, D42, and D43. In the drawing, the abscissa depicts test compounds, and the ordinate depicts the cell viability (%) of each treated plot when the number of live cells in a control non-supplemented with RSL-3 is defined as 100%.

[3] = tested on: human liver cancer cell line (Huh7); assay: Test V: suppression of RSL-3-induced cell death in liver cancer cell system (LDH, MTT); type: cell-based; set-up: key to LDH (LDH activity, cell death): relative to control without RSL-3 (= 1); conditions: for viability at 1 µM: Homo sapiens, Huh-7, read-out: MTT (cell proliferation and cell viability)
Experimental: The ferroptosis inducer used was RSL-3.
At the stage where 70% confluency was attained, the medium was replaced with the medium for the test, and DMSO or each test compound (final concentration of GSK872: 5 μM, and final concentration of the other compounds: 1 μM) was added to the cells in each well, which were then cultured for 1 hour. Then, the ferroptosis inducer (final concentration: 0.5 μM) was added to the cells in each well, which were then cultured for 24 hours. After the completion of culture, cell death suppressive activity was measured with lactate dehydrogenase (LDH) activity as an index while cell proliferation and cell viability were measured with activity of reducing yellow tetrazolium salt (MTT) into formazan as an index.
The values in the table are relative values when the LDH activity and MTT value of a control non-supplemented with RSL-3 are each defined as 1.

[4] = tested on: MELAS patient cells (ME169); assay: Test III: suppression of BSO-induced ferroptosis, MELAS patient cells; type: cell-based, human; conditions: 80 μM BSO coadded with test compound; FIG. 33
Text: as §1
(§3) In the drawing, A depicts the results obtained using compounds D8, D9, D10, D18, D20, D26, and D36, and B depicts the results obtained using compounds D37, D38, D39, D40, D41, D42, and D43. In the drawing, the abscissa depicts test compounds, and the ordinate depicts the cell viability (%) of each treated plot when the number of live cells in a control non-supplemented with BSO is defined as 100%.

[5] = biological target: dopamine D2 receptor (Homo sapiens (Human), UniProt P14416); assay: Test IV: dopamine D2 receptor binding activity (GeneBLAzer D2-Gqo5-NEAT-bla CHO-K1 Cell-based Assay); conditions: for Dopamine D2 receptor binding activity, Activity intensity: CHO-K1 reporter cells, 5 hours
Experimental: In this test, the dopamine D2 receptor binding activity of each test compound was measured using GeneBLAzer D2-Gqo5-NEAT-bla CHO-K1 Cell-based Assay (Thermo Fisher Scientific, Inc.). The CHO cells are designed such that a signal transduction pathway is activated by addition of a drug to express a reporter gene (P lactamase). […] Therefore, the binding activity of the test compound can be measured by measuring a blue fluorescence/green fluorescence ratio. The CHO cells were inoculated at 10,000 cells/well to a 384-well plate and cultured for 16 to 20 hours in a CO2 incubator. […] A substrate mix was added to the cells and incubated at room temperature for 2 hours. […] The respective EC50 values of the test compounds were determined from the measured fluorescence ratios using GraphPad Prism 8.

[6] = tested on: MELAS patient cells (ME169); assay: Test III: suppression of RSL-3-induced ferroptosis, MELAS patient cells; type: cell-based, human; conditions: 100 nM RSL-3 coadded with test compound; FIG. 35
Text: as §1, §2

[7] = tested on: Leigh syndrome patient cells (KCMC10); assay: Test III: suppression of BSO-induced ferroptosis, Leigh syndrome patient cells; type: cell-based, human; conditions: for cell death ascribable to ferroptosis induced by BSO: 100 μM BSO coadded with test compound, FIG. 32; for EC50: Homo sapiens, read-out: EC50 (50% effective concentration of the suppressive effect on cell death ascribable to ferroptosis induced by BSO); for EC50 / ferroptosis inhibitory effect (judged from EC50 value): Leigh syndrome patient cells (KCMC10), BSO; for ferroptosis inhibitory effect (judged from EC50 value): Table 3
Text: as §1, §3

[8] = tested on: Leigh syndrome patient cells (LS^ND3); assay: Test I: suppression of BSO-induced cell death, Leigh syndrome patient cells; type: cell-based, human; conditions: 100 μM BSO alone or coadded with inhibitor (1 μM; GSK872 1-10 μM, v-VAD 1, 10 μM), 48 hours; FIG. 1B, 3B
Text: (§4) In the drawing, the abscissa depicts test compounds, and the ordinate depicts the cell viability (%) of each treated plot when the number of live cells in a control non-supplemented with BSO is defined as 100%.
as §4

[9] = tested on: Leigh syndrome patient cells (LS^ND3); assay: Test I: suppression of RSL-3-induced cell death, Leigh syndrome patient cells; type: cell-based, human; conditions: 50 nM RSL-3 alone or coadded with inhibitor, 48 hours; FIG. 2B, 4B
Text: (§5) In the drawing, the abscissa depicts test compounds, and the ordinate depicts the cell viability (%) of each treated plot when the number of live cells in a control non-supplemented with RSL-3 is defined as 100%.
as §5

[10] = tested on: normal cells (Promo1 cells); assay: Test I: RSL-3 and test compounds on normal cells; type: cell-based, human; conditions: RSL-3 alone or coadded with inhibitor, 48 hours; FIG. 4A, 8A
Text: as §5, §5, §5

[11] = tested on: mitochondrial cardiomyopathy patient cells (ME250-1); assay: Test I: suppression of BSO-induced cell death, mitochondrial cardiomyopathy patient cells; type: cell-based, human; conditions: 50-200 μM BSO alone or coadded with drug; FIG. 5B
[12] = tested on: mitochondrial hepatopathy patient cells (ME263-1); assay: Test I: suppression of BSO-induced cell death, mitochondrial hepatopathy patient cells; conditions: 50-200 μM BSO coadded with drug; FIG. 6B
[13] = tested on: Kearns-Sayre syndrome (KSS) patient cells (ME130-1); assay: Test I: suppression of BSO-induced cell death, KSS patient cells; conditions: BSO coadded with drug; FIG. 7B
[14] = tested on: mitochondrial cardiomyopathy patient cells (ME250-1); assay: Test I: suppression of RSL-3-induced cell death, mitochondrial cardiomyopathy patient cells; type: cell-based, human; conditions: 10-140 nM RSL-3 alone or coadded with drug; FIG. 8B
Text: as §5

[15] = Huh7, test compound 1 μM (GSK872 5 μM) 1 hour, then RSL-3 0.5 μM 24 hours, relative value, control non-supplemented with RSL-3 = 1

dopamine D2 receptor, sequence (P14416 whole entry): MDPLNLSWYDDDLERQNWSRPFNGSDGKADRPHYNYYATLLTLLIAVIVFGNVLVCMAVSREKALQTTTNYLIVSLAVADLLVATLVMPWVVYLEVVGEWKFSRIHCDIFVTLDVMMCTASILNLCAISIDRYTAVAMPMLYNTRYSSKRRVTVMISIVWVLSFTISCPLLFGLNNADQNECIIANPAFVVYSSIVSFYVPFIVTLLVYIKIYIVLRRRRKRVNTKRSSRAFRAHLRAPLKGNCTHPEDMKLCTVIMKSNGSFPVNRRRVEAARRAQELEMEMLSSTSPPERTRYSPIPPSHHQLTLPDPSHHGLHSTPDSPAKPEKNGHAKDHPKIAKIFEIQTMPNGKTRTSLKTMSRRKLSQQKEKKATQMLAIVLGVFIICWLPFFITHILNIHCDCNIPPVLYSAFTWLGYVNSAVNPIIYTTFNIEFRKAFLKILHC

| Compound | cell death ascribable to ferroptosis induced by RSL-3 [2] | viability at 1 µM [3, 15] [%] | LDH (LDH activity, cell death) [3, 15] | cell death ascribable to ferroptosis induced by BSO [4] | dopamine D2 receptor binding activity (in words) [5] | Dopamine D2 receptor binding activity, Activity intensity [5] | cell death ascribable to ferroptosis induced by RSL-3 [6] | cell death ascribable to ferroptosis induced by BSO [7] | EC50 [7] [nM] | cell death induced by BSO (cell viability) [8] | also measured |
| --- | --- | --- | --- | --- | --- | --- | --- | --- | --- | --- | --- |
| CCCCOc1ccc2c(c1O)-c1cccc3c1[C@@H](C2)N(C)CC3.Cl [D36] | suppressed | 81 | 0.91 | markedly suppressed | no or little | − | suppressed | markedly suppressed | 123 |  | Inhibitory effect on rotenone-induced cell death [1]: ++; ferroptosis inhibitory effect (judged from EC50 value) [7]: particularly high |
| CC(=O)N(O)CCCCCNC(=O)CCC(=O)N(O)CCCCCNC(=O)CCC(=O)N(O)CCCCCN [DFO, deferoxamine] |  |  |  |  |  |  |  |  |  | suppressed | cell death induced by RSL-3 (cell viability) [9]: the same or similar results |
| CC(C)S(=O)(=O)c1ccc2nccc(Nc3ccc4scnc4c3)c2c1 [GSK872] |  | 38 | 10.84 |  |  |  |  |  |  | not suppressed | cell death (cell viability) in normal cells, RSL-3 [10]: similarly induced; cell death induced by RSL-3 (cell viability) [9]: same or similar tendency as above was more strongly confirmed |
| COc1ccc2c(c1OC)C[C@@H]1c3c(cc4c(c3-2)OCO4)CCN1C [D8] | suppressed | 56 | 2.46 | markedly suppressed | no or little | − | suppressed | markedly suppressed | 180 |  | Inhibitory effect on rotenone-induced cell death [1]: ++; ferroptosis inhibitory effect (judged from EC50 value) [7]: particularly high |
| COC1=C(OC)C(=O)C(CCCCCCCCCCO)=C(C)C1=O [Ide, idebenone] |  |  |  |  |  |  |  |  |  |  | cell death induced by BSO (cell viability) [11]: suppressed; cell death induced by BSO (cell viability) [12]: the same or similar results; cell death induced by BSO (cell viability) [13]: the same or similar results |
| COc1cc2c3c(c1O)-c1c(ccc(OC)c1OC)CC3N(C)CC2 (centres unmarked) [D26] | suppressed | 58 | 4.85 | markedly suppressed | no or little | − | suppressed | markedly suppressed | 289 |  | Inhibitory effect on rotenone-induced cell death [1]: ± |
| Clc1cccc(CN=C2Nc3ccccc3NC23CCNCC3)c1 [Lip-1, liproxstatin] |  |  |  |  |  |  |  |  |  | suppressed | cell death induced by RSL-3 (cell viability) [9]: the same or similar results |
| COC(=O)c1ccc([C@@H]2c3[nH]c4ccccc4c3C[C@@H](C(=O)OC)N2C(=O)CCl)cc1 [RSL-3, reference compound] |  |  | 10.67 |  |  |  |  |  |  |  | cell death (cell viability) in normal cells, RSL-3 [10]: induced; cell death induced by RSL-3 (in words) ([3]; Huh7, RSL-3 0.5 μM): induced; MTT (cell proliferation and cell viability) [3, 15]: 0.45; cell death induced by RSL-3 (cell viability) [14]: induced |
| CCCCS(=N)(=O)CCC(N)C(=O)O [BSO, L-buthionine-(S,R)-sulfoximine] |  |  |  |  |  |  |  |  |  | induced | cell death induced by BSO (cell viability) [11]: induced |
| COc1cc(O)c2c(c1)C[C@@H]1c3c(cc4c(c3-2)OCO4)CCN1C [D10] | suppressed |  |  | markedly suppressed | no or little | − | suppressed | markedly suppressed | 750 |  |  |
| COc1cc2c(cc1OC)-c1c3c(c(OC)c4c1C(C2)N(C)CC4)OCO3 (centres unmarked) [D20] | suppressed |  |  | markedly suppressed | no or little | − | suppressed | markedly suppressed | 798 |  |  |
